Reference: US8652799B2, “Method of detecting bioactive molecules in a fluid sample” (priority 2008, dated 2014)
Like-named read-outs stand apart in the source and are kept apart here.

What was measured:
Type in all cases: cell-based
Anabaena sp. = test: Detection of bioactive molecules with Anabaena sp.: inhibition of photosynthetic fluorescence (Luminotox); details: 10 min, neutral pH; for inhibition at 0.001 ppm: 1 ppb
Procedure: The photosynthetic efficiency is determined with the following formula (F2−F1)/F2. Any molecule affecting directly or indirectly the photosystems modify either F1 or F2 which modification necessarily decreases the photosynthetic efficiency. The inhibition curve of a particular molecule is determined by calculating the activity of the photosystems in the absence of the molecule and in the presence of the molecule and comparing both efficiency as follows as described in Conrad 1993:
Without Inhibitor (wi): efficiency(wi)=(F2(wi)−F1(wi)/F2(wi) With Inhibitor: Relative photosynthetic efficiency(sample)=(F2(sample)−F1(sample))/F2(wi) Percentage Efficiency: efficiency (%)=(efficiency(sample)×100)/efficiency(wi) Percentage Inhibition: Inhibition (%)=100−efficiency (%)
An Anabaena sp. culture was prepared as described in Example 3 above. As indicated in Example 3, the cyanobacteria were reactivated before testing under ambient light and at room temperature during 60 minutes.
The culture was then incubated with bioactive molecules listed in Table 1 below at concentrations of 1 ppm (except for atrazine which was used at a concentration of 1 ppb) for 10 minutes under ambient light followed by 10 minutes under green light and neutral pH. The cellular concentration was 1.0×10^7 cells/mL (100 μL of cyanobacteria within 2 mL of bioactive agent containing aqueous solution (i.e. distilled water)). Testing was performed in triplicates. The fluorescence emitted by each formulation was then measured with Luminotox™ a fluorometer that measures photosynthetic activity.

Chlorella vulgaris [1] = details: 10-15 min. green light exposition at room temperature; neutral pH (pH 7); 5×10^6 cells/mL
Procedure: The algae concentration was 5×10^6 cells/mL (100 μL of algae within 2 mL of aqueous solution (i.e. distilled water)) containing the substance to detect at indicated concentrations. For each substances, 5 concentrations in triplicates were tested. The TOXSTAT™ software was used to calculate from inhibition values and standard deviations obtained, the maximum concentration without observable effect and the minimal concentration with observable effects. The threshold was calculated with the following formula: (maximum concentration without observable effect x minimal concentration with observable effects)^1/2 (See Table 2 below). The temperature was controlled by a thermostatic bath.
(§1) The detection threshold was obtained with the geometric mean. It was calculated with the following formula: Detection threshold=(CSEO×CMEO)^1/2 where
(§2) CMEO=minimal concentration resulting in a detectable inhibition of the algae efficacy.
(§3) CSEO and CMEO were estimated by a variance analysis ANNOVA™ followed by a Dunnett multiple comparison by comparing the mean efficacy of each tested concentration with the control mean. Calculations were performed with TOXSTAT™ (Version 3.5).

Dunaliella tertiolecta = details: 15 min. green light exposition at room temperature; neutral pH (pH 7); 350 000 cells/mL
Procedure: as §1, §2, §3
A Dunaliella tertiolecta culture was prepared as described in Example 2 above. As indicated in Example 2, the algae were reactivated before testing under ambient light and at room temperature during 45 minutes.
The algae formulations were then incubated for 15 minutes with water containing one of the various contaminants listed in Table 2 below at neutral pH under green light and at room temperature. The algae concentration was 350 000 cells/mL (500 μL of algae within 2 mL of aqueous solution (i.e. distilled water) containing substance to detect at indicated concentrations). For each substances, 5 concentrations in triplicates were tested. The TOXSTAT™ software was used to calculate from inhibition values and standard deviations obtained, the maximum concentration without observable effect and the minimal concentration with observable effects (See Table 2 below). The temperature was controlled by a thermostatic bath. Tests were performed in triplicates. The fluorescence emitted by each formulation was then measured with Luminotox™, a fluorometer that measures photosynthetic activity and detection threshold determined as described in the Example above.

Chlorella vulgaris [2] = test: Stability of Chlorella vulgaris assessed by the CI20 of atrazine; details: 10 min green light, room temperature; + or − two sigma 0.002; algae stored at 4° C. and 20° C.; atrazine tested 0-0.04 mg/L
Procedure: The stability of Chlorella vulgaris was evaluated by determining the Cl20 of atrazine using seven different atrazine concentrations. Cl20 is the concentration of atrazine inhibiting 20% of the efficacy emitted by Chlorella vulgaris as compared to a control Chlorella vulgaris preparation. The Cl20 is statistically determined with the software Icp version 2.0. Stability over time is determined by assessing the number of Cl20 within a range of 2 σ of average.
A Chlorella vulgaris culture was prepared as described in Example 1 above. As indicated above, the algae were reactivated before testing during 90 minutes under ambient light and at room temperature.
The culture was then incubated with atrazine for 10 minutes under green light and at room temperature. The cellular concentration of the algae was 5×10^6 cells/mL of solution (100 μL algae in 2 mL of atrazine-containing aqueous solution (i.e. distilled water)). The concentration of atrazine varied between 0 and 0.04 mg/L. Testing was performed in triplicates. The fluorescence emitted by each formulation was then measured with Luminotox™, a fluorometer that measures photosynthetic activity.

Chlorella vulgaris [3] = test: Tetracycline detection with Chlorella vulgaris (ambient light, 35° C., low algae concentration); details: within 15 minutes, neutral pH, 2.5×10^6 cells/mL
Procedure: A Chlorella vulgaris culture was prepared as described in Example 1 above. As indicated in Example 1, the algae were reactivated before testing under ambient light and at room temperature during 90 minutes.
The algae formulation was then incubated for 15 or 60 minutes with water containing tetracycline at the indicated concentrations (FIG. 17) under ambient light at a temperature of 35° C. and at a neutral pH. Algae concentrations of 2.5×10^6 cells/mL (50 μL of algae within 2 mL of tetracycline-containing aqueous solutions (i.e. distilled water)) were tested. Testing was performed in triplicates. The fluorescence emitted by each formulation was then measured with Luminotox™, a fluorometer that measures photosynthetic activity.

Structure (SMILES) | inhibition at 0.001 ppm (Anabaena sp.; 10 min ambient light followed by 10 min green light, read-out: Inhibition obtained (followed by 10 min green light)) | inhibition at 0.001 ppm (Anabaena sp.; 10 min ambient light, read-out: Inhibition obtained (10 min ambiant light)) | Detection threshold (Chlorella vulgaris [1]) | Detection threshold (Dunaliella tertiolecta) | CI20 (concentration inhibiting 20% of the efficacy), average over storage (Chlorella vulgaris [2]) | inhibition at 1 ppm (Anabaena sp.; 10 min ambient light followed by 10 min green light, read-out: Inhibition obtained at 1 ppm (followed by 10 min green light)) | inhibition at 1 ppm (Anabaena sp.; 10 min ambient light, 1.0×10^7 cells/mL, read-out: Inhibition obtained at 1 ppm (10 min ambiant light)) | Concentration detected (Chlorella vulgaris [3])
CCNc1nc(Cl)nc(NC(C)C)n1 [atrazine] | 13% | 1% | 0.0007 ppm | 0.01 ppm | 0.0037 | – | – | –
CN(C)[C@@H]1C(O)=C(C(N)=O)C(=O)[C@@]2(O)C(O)=C3C(=O)c4c(O)cccc4[C@@](C)(O)[C@H]3C[C@@H]12 [tetracycline] | – | – | – | – | – | 30% | 0% | 10 µg/mL
